Reference: publication PMC4192545, “Suramin Inhibits Hsp104 ATPase and Disaggregase Activity” (PLoS ONE, 2014)
Values joined by “and” are separate entries in the source; they are usually repeats but may differ in a detail not shown here. Equal entries are not always repeated.

Assays:
Hsp104 = target: T1, Hsp104 (Saccharomyces cerevisiae, UniProt P31539); assay: Luciferase disaggregation/reactivation assay, Hsp104 with ATP:ATPγS; type: biochemical, yeast
T1 construct: made in house; host or cells: E. coli BL21-DE3 RIL
T1 sequence (P31539 whole entry): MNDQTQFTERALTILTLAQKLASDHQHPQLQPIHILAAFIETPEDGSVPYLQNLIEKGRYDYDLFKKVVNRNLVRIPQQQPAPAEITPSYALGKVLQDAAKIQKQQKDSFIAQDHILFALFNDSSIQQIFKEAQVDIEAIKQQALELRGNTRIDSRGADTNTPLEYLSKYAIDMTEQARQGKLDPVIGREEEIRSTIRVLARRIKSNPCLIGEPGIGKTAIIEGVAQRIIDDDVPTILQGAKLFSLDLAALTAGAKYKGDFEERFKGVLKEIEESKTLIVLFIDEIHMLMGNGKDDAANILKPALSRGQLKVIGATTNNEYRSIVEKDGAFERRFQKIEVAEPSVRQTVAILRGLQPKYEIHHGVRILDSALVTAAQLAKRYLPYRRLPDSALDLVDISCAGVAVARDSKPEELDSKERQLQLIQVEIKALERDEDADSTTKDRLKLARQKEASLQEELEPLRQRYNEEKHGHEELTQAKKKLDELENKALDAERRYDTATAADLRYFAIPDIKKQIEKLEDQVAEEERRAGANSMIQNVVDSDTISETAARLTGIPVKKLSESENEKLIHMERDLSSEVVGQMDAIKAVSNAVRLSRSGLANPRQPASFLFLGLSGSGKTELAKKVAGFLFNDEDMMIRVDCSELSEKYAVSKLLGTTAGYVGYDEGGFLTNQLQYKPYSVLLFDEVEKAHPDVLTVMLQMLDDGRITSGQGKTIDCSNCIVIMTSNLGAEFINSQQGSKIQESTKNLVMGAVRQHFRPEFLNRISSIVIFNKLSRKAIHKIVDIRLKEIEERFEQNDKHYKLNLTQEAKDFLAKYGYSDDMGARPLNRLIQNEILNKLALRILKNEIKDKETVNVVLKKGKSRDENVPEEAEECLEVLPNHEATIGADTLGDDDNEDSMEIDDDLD
Protocol: (§1) Luciferase reactivation was performed as described, [37]. To assemble aggregates, firefly luciferase (50 µM) in luciferase refolding buffer (LRB, 25 mM HEPES-KOH, 7.4, 150 mM KAOc, 10 mM MgAOc, 10 mM DTT) with 6 M urea was incubated at 30°C for 20 min. Luciferase was then rapidly diluted 100-fold into LRB, divided into 100 µL aliquots, snap frozen in liquid N2, and stored at −80°C. For reactivation assays, aggregated luciferase (50 nM) was incubated with Hsp104 (1 µM hexamer), plus 2.6 mM ATPγS, 2.6 mM ATP and an ATP regeneration system (1 mM creatine phosphate, 0.25 µM creatine kinase (Roche Applied Science)) for 90 minutes at 25°C. Luciferase assay system was purchased from Promega. Luciferase activity was assessed by luminescence measured on a Safire^2 microplate reader (Tecan, Männedorf, Switzerland). The half maximal inhibitory concentration (IC50) was calculating by fitting luciferase-refolding data at different Suramin concentrations with Prism (GraphPad Software, Inc., La Jolla, CA).

Δpdr5 yeast [1] = assay: Thermotolerance of Δpdr5 yeast; type: cell-based; conditions: Suramin 100 µM, data not shown
ClpB = target: T2, ClpB (Escherichia coli, UniProt P63284); assay: ClpB luciferase reactivation assay; type: biochemical, E. coli
T2 construct: made in house
T2 sequence (P63284 whole entry): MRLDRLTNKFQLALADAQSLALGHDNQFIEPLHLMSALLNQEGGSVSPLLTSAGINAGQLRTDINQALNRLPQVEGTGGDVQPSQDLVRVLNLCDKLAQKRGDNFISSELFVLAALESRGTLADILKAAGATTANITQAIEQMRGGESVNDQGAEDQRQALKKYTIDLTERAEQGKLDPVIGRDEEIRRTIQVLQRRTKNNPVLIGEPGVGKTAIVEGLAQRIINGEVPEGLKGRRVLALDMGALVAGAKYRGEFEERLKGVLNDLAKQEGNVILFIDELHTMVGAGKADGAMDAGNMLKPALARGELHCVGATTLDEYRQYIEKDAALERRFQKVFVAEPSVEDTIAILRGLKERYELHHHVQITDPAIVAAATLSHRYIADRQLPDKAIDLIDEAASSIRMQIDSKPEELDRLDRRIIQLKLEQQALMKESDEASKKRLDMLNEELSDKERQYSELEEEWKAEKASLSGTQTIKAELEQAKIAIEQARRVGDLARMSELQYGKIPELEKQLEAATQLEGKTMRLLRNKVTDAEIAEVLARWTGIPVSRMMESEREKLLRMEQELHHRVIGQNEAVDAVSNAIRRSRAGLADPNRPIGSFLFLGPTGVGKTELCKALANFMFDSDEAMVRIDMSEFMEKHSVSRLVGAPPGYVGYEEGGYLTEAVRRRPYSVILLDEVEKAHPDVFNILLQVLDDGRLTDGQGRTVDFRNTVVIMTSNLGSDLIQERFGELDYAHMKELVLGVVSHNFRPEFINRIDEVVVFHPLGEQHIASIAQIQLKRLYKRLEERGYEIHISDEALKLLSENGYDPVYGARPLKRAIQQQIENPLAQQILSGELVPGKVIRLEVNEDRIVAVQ
Protocol: as §1
(A) ClpB (0.25 µM monomer) was incubated for 10 min with ATP (1 mM) and varying concentrations of Suramin. The amount of Pi produced was measured by absorbance at 635 nm. Absorbance values were normalized to the absorbance produced by ClpB in the absence of inhibitor. Values represent mean ±S.D. (n = 6). (B) Urea-denatured firefly luciferase aggregates were incubated for 90 min at 25°C with ClpB (1 µM hexamer) in the presence of 1∶1 mixtures of ATP and ATPγS and varying concentrations of Suramin. Reactivation of luciferase was then determined by luminescence and converted to % WT ClpB activity (activity of 1 µM WT ClpB in the presence of ATP and ATPγS). Values represent mean ±S.D. (n = 6–12). TEXT PRINTED IN THE PICTURE: (A) Suramin: Normalized ATPase Activity: 1.03 ([Suramin] μM: 0); Normalized ATPase Activity: 0.76 ([Suramin] μM: 100); Normalized ATPase Activity: 0.78 ([Suramin] μM: 50); Normalized ATPase Activity: 0.60 ([Suramin] μM: 25); Normalized ATPase Activity: 0.59 ([Suramin] μM: 10); Normalized ATPase Activity: 0.65 ([Suramin] μM: 5); Normalized ATPase Activity: 1.01 ([Suramin] μM: 1) | (B) Suramin: Normalized Luciferase Refolding Activity: 1.00 ([Suramin] μM: 0); Normalized Luciferase Refolding Activity: 0.16 ([Suramin] μM: 100); Normalized Luciferase Refolding Activity: 1.03 ([Suramin] μM: 50); Normalized Luciferase Refolding Activity: 1.39 ([Suramin] μM: 25); Normalized Luciferase Refolding Activity: 2.23 ([Suramin] μM: 10); Normalized Luciferase Refolding Activity: 1.82 ([Suramin] μM: 5); Normalized Luciferase Refolding Activity: 1.02 ([Suramin] μM: 1)

Hsp104^N728A = target: T3, Hsp104^N728A (Saccharomyces cerevisiae, UniProt P31539, N728A); assay: ATPase assay, Hsp104^N728A; type: biochemical, yeast; conditions: read-out: Hsp104^N728A ATPase activity relative to uninhibited protein
T3 construct: made in house; host or cells: E. coli BL21-DE3 RIL
T3 sequence (P31539 whole entry N728A): as the sequence (P31539 whole entry) above, with N728A counted along it
Protocol: Wild-type or mutant Hsp104 (0.25 µM monomer) in ATPase buffer (20 mM HEPES-KOH pH 7.4, 20 mM NaCl and 10 mM MgCl2) was incubated for 60 or 10 min at 25°C in the presence of ATP (1 mM) as noted. ATPase activity was assessed by the release of inorganic phosphate determined by using a malachite green phosphate detection kit (Innova).
(§2) Figure 7 Hsp104 variants respond differently to Suramin than Hsp104^WT. (A) Hsp104 variants (0.25 µM monomer) were incubated for 10 min with ATP (1 mM) and varying concentrations of Suramin. The amount of Pi produced was measured by absorbance at 635 nm. Absorbance values were normalized to the absorbance produced by each Hsp104 variant in the absence of inhibitor. Values represent mean ±S.D. (n = 6). (B) Urea-denatured firefly luciferase aggregates were incubated for 90 min at 25°C with Hsp104 variants (1 µM hexamer) plus 1∶1 mixtures of ATP and ATPγS (or ATP alone) and varying concentrations of Suramin. Luciferase reactivation was then determined and normalized to untreated disaggregase activity for each variant in the presence of ATPγS: ATP (or ATP alone). 1∶1 mixtures of ATP and ATPγS were used for Hsp104^WT and Hsp104^T317A, while ATP alone was used for Hsp104^A503V and Hsp104^N728A. Values represent mean ±S.D. (n = 6–12).

Hsp104^T317A = target: T4, Hsp104^T317A (Saccharomyces cerevisiae, UniProt P31539, T317A); assay: Luciferase reactivation, Hsp104^T317A; type: biochemical, yeast; conditions: ATP:ATPγS 1:1
T4 construct: made in house; host or cells: E. coli BL21-DE3 RIL
T4 sequence (P31539 whole entry T317A): as the sequence (P31539 whole entry) above, with T317A counted along it
Protocol: as §1, §2

Δpdr5 yeast [2] = assay: [PSI+] propagation in Δpdr5 yeast; type: cell-based; conditions: Suramin 100 µM, data not shown

Cc1ccc(C(=O)Nc2ccc(S(=O)(=O)O)c3cc(S(=O)(=O)O)cc(S(=O)(=O)O)c23)cc1NC(=O)c1cccc(NC(=O)Nc2cccc(C(=O)Nc3cc(C(=O)Nc4ccc(S(=O)(=O)O)c5cc(S(=O)(=O)O)cc(S(=O)(=O)O)c45)ccc3C)c2)c1 [Suramin] was tested, and the “Normalized Luciferase Refolding Activity” value (Hsp104; Figure 3D, Hsp104 alone (104), ATP:ATPγS 1:1, Suramin 25 µM) was 0.14, the “Normalized Luciferase Refolding Activity” value (Hsp104; Figure 3D, Hsp104 alone (104), ATP:ATPγS 1:1, Suramin 100 µM) was 0.00 and the “Hsp104^WT refolding activity” value (Hsp104; Suramin 1 µM) was 100%. For the same molecule, the “Normalized Luciferase Refolding Activity” value (Hsp104; Suramin 1 µM, 90 min 25°C, ATP:ATPγS 1:1, Figure 3B) was 0.99, the “Normalized Luciferase Refolding Activity” value (Hsp104; Suramin 5 µM, 90 min 25°C, ATP:ATPγS 1:1, Figure 3B) was 0.63 and the “Normalized Luciferase Refolding Activity” value (Hsp104; Suramin 10 µM, 90 min 25°C, ATP:ATPγS 1:1, Figure 3B) was 0.50. For the same molecule, the “Normalized Luciferase Refolding Activity” value (Hsp104; Suramin 25 µM, 90 min 25°C, ATP:ATPγS 1:1, Figure 3B) was 0.14, the Hsp104 refolding activity (Hsp104; Suramin 50 µM) was “practically inactive” and the “Normalized Luciferase Refolding Activity” value (Hsp104; Suramin 50 µM, 90 min 25°C, ATP:ATPγS 1:1, Figure 3B) was 0.03. The “Effect on Hsp104 refolding of denatured luciferase” value (Hsp104; Suramin 100 µM) was “completely ablated the ability of Hsp104 to refold denatured luciferase”, the “Normalized Luciferase Refolding Activity” value (Hsp104; Suramin 100 µM, 90 min 25°C, ATP:ATPγS 1:1, Figure 3B) was 0.00 and the IC50 (Hsp104; fit of luciferase-refolding data, ATP:ATPγS 1:1, read-out: IC50, Hsp104^WT luciferase refolding) was ~10.1 µM and 10.1 µM. The Effect on thermotolerance (Δpdr5 yeast [1]) was “impaired neither”, the “Normalized Luciferase Refolding Activity” value (ClpB; ClpB 1 µM hexamer, Suramin 100 µM, 90 min 25°C, ATP:ATPγS 1:1, Figure 5B) was 0.16 and the “Normalized Luciferase Refolding Activity” value (ClpB; ClpB, Suramin 1 µM, Figure 5B) was 1.02. For the same molecule, the “Normalized Luciferase Refolding Activity” value (ClpB; ClpB, Suramin 5 µM, Figure 5B) was 1.82, the “Normalized Luciferase Refolding Activity” value (ClpB; ClpB, Suramin 10 µM, Figure 5B) was 2.23 and the “Normalized Luciferase Refolding Activity” value (ClpB; ClpB, Suramin 25 µM, Figure 5B) was 1.39. For the same molecule, the “Normalized Luciferase Refolding Activity” value (ClpB; ClpB, Suramin 50 µM, Figure 5B) was 1.03, the “ClpB refolding power retained” value (ClpB; Suramin 50 µM) was 100% and the remaining activity at 100 µM (ClpB; Suramin 100 µM, read-out: ClpB disaggregase activity remaining) was 16%. For the same molecule, the “Effect on ClpB luciferase reactivation” value (ClpB; low concentrations of Suramin) was “increased the amount of luciferase ClpB was able to reactivate”, the activity at 100 µM (Hsp104^N728A) was roughly 75% and the “Hsp104^T317A refolding activity” value (Hsp104^T317A; Suramin 1 µM) was “approximately 75%”. For the same molecule, the “Hsp104^T317A refolding activity” value (Hsp104^T317A; Suramin 50 µM) was “approximately 8%”, the IC50 (Hsp104^T317A; based on refolding data) was roughly 20.5 µM and the “Effect on [PSI+] propagation” value (Δpdr5 yeast [2]) was “impaired neither”.
